Values after ≈ are worked out from the molar mass of the structure shown.
Legend:
Enterococcus faecium [1] = test: Compound was evaluated for its antibacterial activity against Enterococcus faecium RLA1 strain resistant to ampicillin; type: functional
[2] = tested on: Staphylococcus epidermidis; test: Compound was evaluated for its antibacterial activity against Staphylococcus epidermidis ATCC 12228; type: functional
Enterococcus faecalis [3] = test: Compound was evaluated for its antibacterial activity against Enterococcus faecalis ATCC 29212; type: functional
Enterococcus faecium [4] = test: Compound was evaluated for its antibacterial activity against Enterococcus faecium CL4931 (Van A); type: functional
Enterococcus faecalis [5] = test: Compound was evaluated for inhibition of peptidoglycan synthesis in Enterococcus faecalis using [14C]lysine radioligand; type: functional, organism-based
Enterococcus faecium [6] = test: Compound was evaluated for its antibacterial activity against Enterococcus faecium ATCC 49624; type: functional
Escherichia coli [7] = test: Compound was evaluated for inhibition of peptidoglycan synthesis in Escherichia coli using [14C]-lipid II radioligand; type: functional, organism-based
Escherichia coli [8] = test: Compound was evaluated for inhibition of peptidoglycan synthesis in Escherichia coli using UDP-[14C]-GlcNAc radioligand; type: functional, organism-based
Enterococcus faecalis [9] = test: Compound was evaluated for its antibacterial activity against Enterococcus faecalis CL5244 (Van B); type: functional
Escherichia coli [10] = test: Compound was evaluated for its antibacterial activity against Escherichia coli BAS849; type: functional
Enterococcus faecalis [11] = test: Compound was evaluated for bactericidal activity against Enterococcus faecalis; type: functional; parameters: concentration or dose not given beside the values
[12] = tested on: Staphylococcus epidermidis; test: Compound was evaluated for bactericidal activity against Staphylococcus epidermidis; type: functional
Staphylococcus aureus [13] = test: Compound was evaluated for bactericidal activity against Staphylococcus aureus; type: functional
Staphylococcus aureus [14] = test: Compound was evaluated for its antibacterial activity against Staphylococcus aureus ATCC 29213; type: functional
Enterococcus faecalis [15] = test: Compound was evaluated for its antibacterial activity against Enterococcus faecalis CL4877 (Van B); type: functional
[16] = tested on: Staphylococcus epidermidis; test: Compound was evaluated for its antibacterial activity against […] ATCC 12228; type: functional
[17] = tested on: Staphylococcus epidermidis; test: Compound was evaluated for bactericidal activity against […]; type: functional
Enterococcus faecalis [18] = test: Compound was evaluated for inhibition of peptidoglycan synthesis in Enterococcus faecalis using [14C]lysine radioligand; not applicable; type: functional, organism-based

| Structure (SMILES) | MIC (Enterococcus faecium [1]) | MIC [2] | MIC (Enterococcus faecalis [3]) | MIC (Enterococcus faecium [4]) | IC50 (Enterococcus faecalis [5]) | MIC (Enterococcus faecium [6]) | IC50 (Escherichia coli [7]) | IC50 (Escherichia coli [8]) | MIC (Enterococcus faecalis [9]) | MIC (Escherichia coli [10]) | Survival (Enterococcus faecalis [11]) | Survival [12] | Survival (Staphylococcus aureus [13]) | MIC (Staphylococcus aureus [14]) | MIC (Enterococcus faecalis [15]) | MIC [16] | Survival [17] | IC50 (Enterococcus faecalis [18]) |
| --- | --- | --- | --- | --- | --- | --- | --- | --- | --- | --- | --- | --- | --- | --- | --- | --- | --- | --- |
| CC(=O)N[C@@H]1[C@H](O[C@H]2[C@@H](O)[C@H](NC(C)=O)[C@H](OC3[C@@H](OP(=O)(O)OC[C@@H](OCCC(C)CCCCC(C)(C)CCC(C)CCC(C)CCCC(C)C)C(=O)O)O[C@@H](C(N)=O)[C@@](C)(O)[C@@H]3OC(N)=O)O[C@H]2CO[C@@H]2O[C@@H](CO)[C@@H](O)[C@H](O)[C@@H]2O)O[C@@H](C)[C@@H](O[C@@H]2O[C@@H](C(=O)NC3=C(O)CCC3=O)[C@H](O)[C@H](O)[C@@H]2O)[C@@H]1O (stereo partly specified) | 0.25 µg/mL (≈ 0.157 µM) | 0.31 µg/mL (≈ 0.195 µM) | 0.08 µg/mL (≈ 0.0502 µM) | 0.78 µg/mL (≈ 0.49 µM) | > 700000 nM | > 25 µg/mL | 98 nM | 8.1 nM | 0.25 µg/mL (≈ 0.157 µM) | 0.31 µg/mL (≈ 0.195 µM) | 141% | 0.33% | 62% | 0.16 µg/mL (≈ 0.1 µM) | 0.25 µg/mL (≈ 0.157 µM) |  |  |  |
| CC(=O)N[C@@H]1[C@H](O[C@H]2[C@@H](O)[C@H](NC(C)=O)[C@H](O[C@@H]3[C@@H](OP(=O)(O)OC[C@@H](OCCC(C)CCCCC(C)(C)CCC(C)CCC(C)CCCC(C)C)C(=O)O)O[C@@H](C(N)=O)[C@@](C)(O)[C@@H]3OC(N)=O)O[C@H]2CO[C@@H]2O[C@@H](CO)[C@@H](O)[C@H](O)[C@@H]2O)O[C@@H](C)[C@@H](O[C@@H]2O[C@@H](C(N)=O)[C@H](O)[C@H](O)[C@@H]2O)[C@@H]1O (stereo partly specified) | 0.25 µg/mL (≈ 0.167 µM) |  | 0.16 µg/mL (≈ 0.107 µM) | 0.39 µg/mL (≈ 0.261 µM) | > 700000 nM | > 25 µg/mL | 87 nM | 8.6 nM | 0.25 µg/mL (≈ 0.167 µM) | 0.08 µg/mL (≈ 0.0535 µM) | 176% | 0.4% | 61% | 0.08 µg/mL (≈ 0.0535 µM) | 0.25 µg/mL (≈ 0.167 µM) | 0.16 µg/mL (≈ 0.107 µM) |  |  |
| CCCCCCCCCCCCO[C@H](COP(=O)(O)OC1OC(C(N)=O)C(O)C(NC(=O)Nc2ccc(Cl)c(C(F)(F)F)c2)C1OC1OC(CO)C(O)C(O)C1NC(=O)c1cccc(C(F)(F)F)c1)C(=O)O (stereo partly specified) | 6.25 µg/mL (≈ 5.77 µM) |  | 6.25 µg/mL (≈ 5.77 µM) | 6.25 µg/mL (≈ 5.77 µM) | 2500 nM | 6.25 µg/mL (≈ 5.77 µM) | 100000 nM | 9800 nM | 3.13 µg/mL (≈ 2.89 µM) | 12.5 µg/mL (≈ 11.5 µM) | 0.00024% |  | <5e-05% | 6.25 µg/mL (≈ 5.77 µM) | 3.13 µg/mL (≈ 2.89 µM) | 6.25 µg/mL (≈ 5.77 µM) | <5e-05% |  |
| CC(=O)NC1C(OC2C(CO)OC(OC3C(OP(=O)(O)OC[C@@H](OCCC(C)CCCCC(C)(C)CCC(C)CCC(C)CCCC(C)C)C(=O)O)OC(C(N)=O)C(C)(O)C3OC(N)=O)C(NC(C)=O)C2O)OC(C)C(O)C1O (stereo partly specified) | 1.56 µg/mL (≈ 1.35 µM) |  | 0.78 µg/mL (≈ 0.673 µM) | 1.56 µg/mL (≈ 1.35 µM) | 50400 nM | 25 µg/mL (≈ 21.6 µM) | 131 nM | 16 nM | 1.56 µg/mL (≈ 1.35 µM) | 0.31 µg/mL (≈ 0.267 µM) | 147% | 0.022% | 0.035% | 0.63 µg/mL (≈ 0.543 µM) | 1.56 µg/mL (≈ 1.35 µM) | 0.53 µg/mL (≈ 0.457 µM) |  |  |
| CC(=O)NC1C(OC2C(OP(=O)(O)OC[C@@H](OCCC(C)CCCCC(C)(C)CCC(C)CCC(C)CCCC(C)C)C(=O)O)OC(C(N)=O)C(C)(O)C2OC(N)=O)OC(CO)C(O)C1O (stereo partly specified) |  | > 100 µg/mL | > 100 µg/mL | > 100 µg/mL |  | > 100 µg/mL | 241 nM | 33 nM | > 100 µg/mL | > 100 µg/mL |  |  |  | > 100 µg/mL | > 100 µg/mL |  |  | Not Active |
| C=C(C/C=C(\C)CCC=C(C)C)CCC(C)(C)/C=C/CC/C(C)=C\CO[C@H](COP(=O)(O)O[C@H]1O[C@@H](C(N)=O)[C@@](C)(O)[C@H](OC(N)=O)[C@@H]1O[C@@H]1O[C@@H](CO[C@@H]2O[C@@H](CO)[C@@H](O)[C@H](O)[C@@H]2O)[C@@H](O[C@@H]2O[C@@H](C)[C@@H](O[C@@H]3O[C@@H](C(=O)NC4=C(O)CCC4=O)[C@H](O)[C@H](O)[C@@H]3O)[C@H](O)[C@@H]2NC(C)=O)[C@@H](O)[C@@H]1NC(C)=O)C(=O)O [MOENOMYCIN] | 0.78 µg/mL (≈ 0.493 µM) |  | 0.078 µg/mL (≈ 0.0493 µM) | 0.25 µg/mL (≈ 0.158 µM) | > 700000 nM | > 200 µg/mL | 31 nM | 15.6 nM | 0.06 µg/mL (≈ 0.0379 µM) | 0.025 µg/mL (≈ 0.0158 µM) | 143% | 0.48% | 125% | 0.05 µg/mL (≈ 0.0316 µM) | 0.13 µg/mL (≈ 0.0821 µM) | 0.025 µg/mL (≈ 0.0158 µM) |  |  |
| CN[C@H](CC(C)C)C(=O)N[C@H]1C(=O)N[C@@H](CC(N)=O)C(=O)N[C@H]2C(=O)N[C@H]3C(=O)N[C@H](C(=O)N[C@H](C(=O)O)c4cc(O)cc(O)c4-c4cc3ccc4O)[C@H](O)c3ccc(c(Cl)c3)Oc3cc2cc(c3O[C@@H]2O[C@H](CO)[C@@H](O)[C@H](O)[C@H]2O[C@H]2C[C@](C)(N)[C@H](O)[C@H](C)O2)Oc2ccc(cc2Cl)[C@H]1O [VANCOMYCIN] | 0.78 µg/mL (≈ 0.538 µM) |  | 3.12 µg/mL (≈ 2.15 µM) | > 1250 µg/mL | 2600 nM | 0.39 µg/mL (≈ 0.269 µM) | 4500 nM | 3700 nM | 25 µg/mL (≈ 17.3 µM) | 0.78 µg/mL (≈ 0.538 µM) |  |  |  |  | 1250 µg/mL (≈ 863 µM) |  |  |  |
